Test results from patent US9708270B2, “Substituted spiropiperidinyl compounds useful as GPR120 agonists” (Merck Sharp & Dohme Corp., priority 2012, dated 2017).

Molecular target: T1, human GPR120 (Homo sapiens (Human), UniProt Q5NUL3)
Assay: FLIPR assay: intracellular calcium in CHO cells expressing human GPR120
Assay type: cell-based
Details: FLIPR calcium assay, CHO cells expressing human GPR120, agonist action
Description: All compounds were tested under the FLIPR assay unless otherwise indicated.
Primers were synthesized in the domains on the opposite sides of the base sequences of the ORFs of the known GPCR and GPR120 in GenBank Accession NOs. […] The base sequences of the primers used are described below. The restriction enzymes, BamHI and EcoRI, recognition sites were introduced for subcloning, respectively.
As samples for PCR, human small intestine Marathon-ready cDNA (CLONTECH, current corporate name: TaKaRa) and cDMA obtained by reverse transcription of mouse BAT-derived RNA were used for human and mouse GPR120 receptor genes, respectively.
Using KOD Plus (TOYOBO) for PCR, 30 cycles of 94° C. for 2 minutes, 94° C. for 15 seconds, 55° C. for 30 seconds and 68° C. for 1 minute were carried out to effect reaction, followed by addition of 0.5 units of ExTaq (TaKaRa) and incubation at 72° C. for 10 minutes to carry out A-addition reaction to terminals. For mouse PCR, 35 cycles were carried out on the condition of a final DMSO concentration of 2%.
Cloning of amplified PCR products was carried out using pCR2.1-TOPO TA cloning kit (Invitrogen). For verification of base sequences, electrophoresis was carried out using BigDye Terminator Cycle Sequencing Ready Reaction Kit Ver.
The GPR120 receptor genes cloned into pCR2.1-TOPO vectors, into which the restriction enzymes, BamHI and EcoRI, recognition sites were introduced, were excised from the vectors by the enzymes and subcloned into the BamHI and EcoRI recognition sites of eukaryotic expression vector EF1/V5-His B (Invitrogen).
Test 2: Production of Expression Cells
Using Lipofectamine 2000 (Invitrogen), cDNA of GPR120 receptor was transfected into CHO/NFAT-BLA cells, and drug-resistant cells were isolated to obtain GPR120 stable expression strains. The GPR120-expressed CHO cells were cultured in DMEM/F12 medium containing 10% fetal bovine serum, 100 units/ml penicillin, 0.1 mg/ml streptomycin sulfate, 250 μg/ml Zeocin, 500 μg/mL Geneticin and 15 mM HEPES.
Test 3: Measurement of Intracellular Calcium Concentration
To the cells was added the test compound diluted with HBSS solution containing 20 mM HEPES and 2.5 mM probenecid. Variations in the intracellular calcium concentration were measured by Fluorescence Imaging Plate Reader (FLIPR; Molecular Devices) to examine the agonist action, and EC50 values were calculated. […]

T1 sequence (Q5NUL3 whole entry): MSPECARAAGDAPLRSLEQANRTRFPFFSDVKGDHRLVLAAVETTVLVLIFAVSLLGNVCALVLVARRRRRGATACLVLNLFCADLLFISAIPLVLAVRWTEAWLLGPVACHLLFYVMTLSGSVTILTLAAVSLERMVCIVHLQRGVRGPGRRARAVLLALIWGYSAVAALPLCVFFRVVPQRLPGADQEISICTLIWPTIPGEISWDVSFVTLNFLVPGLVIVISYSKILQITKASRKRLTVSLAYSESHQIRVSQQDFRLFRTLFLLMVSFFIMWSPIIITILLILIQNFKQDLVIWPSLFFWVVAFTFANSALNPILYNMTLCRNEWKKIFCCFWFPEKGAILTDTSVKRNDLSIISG

Compound | EC50
COc1cc(OC(F)(F)F)cc(N2CCC3(CCC(CC(=O)O)CC3)CC2)c1 [Example 49] | 449 nM
N#Cc1cc(OC(F)(F)F)cc(N2CCC3(CCC(CC(=O)O)CC3)CC2)c1 [Example 51] | 617 nM
O=C(O)CC1CCC2(CC1)CCN(c1cc(OC3CC3)ccc1Cl)CC2 [Example 55] | 869 nM
CC(C)Oc1cc(OC(F)(F)F)cc(N2CCC3(CCC(CC(=O)O)CC3)CC2)c1 [Example 56] | 1220 nM
Cc1ccc(C)c(N2CCC3(CCC(CC(=O)O)CC3)CC2)c1 [Example 58] | 1440 nM
Cc1ccc(F)c(N2CCC3(CCC(CC(=O)O)CC3)CC2)c1 [Example 63] | 2320 nM
Cc1cc(F)cc(N2CCC3(CCC(CC(=O)O)CC3)CC2)c1Cl [Example 68] | 2860 nM
Cc1cccc(N2CCC3(CCC(CC(=O)O)CC3)CC2)c1 [Example 70] | 2950 nM
COc1cc(C)cc(N2CCC3(CCC(CC(=O)O)CC3)CC2)c1 [Example 72] | 3060 nM
COc1cc(N2CCC3(CCC(CC(=O)O)CC3)CC2)c(F)cn1 [Example 74] | 3420 nM
O=C(O)CC1CCC2(CC1)CCN(c1ccc(-c3ccccc3)cc1)CC2 [Example 77] | 4940 nM
Cc1cccnc1Oc1ccc(C#N)c(N2CCC3(CCC(CC(=O)O)CC3)CC2)c1 [Example 79] | 6570 nM
O=C(O)CCC1CCC2(CC1)CCN(c1cc(OC3CCC3)ccc1F)CC2 [Example 82, 3-(3-(5-Cyclobutoxy-2-fluorophenyl)-3-azaspiro[5.5]undecan-9-yl)propanoic acid] | 1260 nM
O=C(O)CCCC1CCC2(CC1)CCN(c1cc(OC3CCC3)ccc1F)CC2 [Example 83, 4-(3-(5-Cyclobutoxy-2-fluorophenyl)-3-azaspiro[5.5]undecan-9-yl)butanoic acid] | 791 nM
O=C(O)CCCC1CCC2(CC1)CCN(c1cc(OC(F)(F)F)ccc1Cl)CC2 [Example 86] | 2020 nM
NCCC1CCC2(CC1)CCN(c1cc(OC(F)(F)F)ccc1Cl)CC2 [Example 90, 2-(3-(2-chloro-5-(trifluoromethoxy)phenyl)-3-azaspiro[5.5]undecan-9-yl)ethanamine] | 5610 nM
O=C(O)CC1CCC2(CCN(c3cccc(OC(F)(F)F)c3)CC2)OC1 (stereo not shown) [Example 95] | 1900 nM
O=C(O)CC1CCC2(CCN(c3cc(OC(F)(F)F)ccc3Cl)CC2)OC1 (stereo not shown) [Example 97] | 1290 nM
O=C(O)C[C@@H]1CCC2(CCN(c3cc(OC4CCC4)ccc3F)CC2)OC1 [Example 100] | 4280 nM
COc1cc(Cl)cc(N2CCC3(CC2)CC(CC(=O)O)CO3)c1 (stereo not shown) [Example 102] | 8100 nM

The next lines start with the values.

EC50 | Compound
641 nM | CC(C)Oc1cc(Cl)cc(N2CCC3(CCC(CC(=O)O)CC3)CC2)c1 [Example 52]
667 nM | CSc1cc(N2CCC3(CCC(CC(=O)O)CC3)CC2)cc(C(F)(F)F)c1 [Example 53]
681 nM | O=C(O)CC1CCC2(CC1)CCN(c1cc(OC(F)(F)F)ccc1O)CC2 [Example 54]
1330 nM | N#Cc1ccc(OC2CCC2)cc1N1CCC2(CCC(CC(=O)O)CC2)CC1 [Example 57]
1490 nM | O=C(O)CC1CCC2(CC1)CCN(c1cc(OC(F)(F)F)cc(C(F)(F)F)c1)CC2 [Example 59]
1550 nM | CC(C)Oc1cc(F)cc(N2CCC3(CCC(CC(=O)O)CC3)CC2)c1 [Example 60]
1960 nM | O=C(O)CC1CCC2(CC1)CCN(c1cc(OC(F)F)ccc1Cl)CC2 [Example 61]
2150 nM | O=C(O)CC1CCC2(CC1)CCN(c1cc(OC3CC3)ccc1F)CC2 [Example 62]
2400 nM | COc1cccc(N2CCC3(CCC(CC(=O)O)CC3)CC2)c1 [Example 64]
2500 nM | Cc1ccc(C#N)cc1N1CCC2(CCC(CC(=O)O)CC2)CC1 [Example 65]
2940 nM | CN(C)c1cccc(N2CCC3(CCC(CC(=O)O)CC3)CC2)c1 [Example 69]
2960 nM | Cc1cc(C#N)cc(N2CCC3(CCC(CC(=O)O)CC3)CC2)c1 [Example 71]
3170 nM | O=C(O)CC1CCC2(CC1)CCN(c1cc(C(F)(F)F)ccc1CO)CC2 [Example 73]
3630 nM | COCCOc1cc(Cl)cc(N2CCC3(CCC(CC(=O)O)CC3)CC2)c1 [Example 75]
6970 nM | COCCOc1ccc(Cl)c(N2CCC3(CCC(CC(=O)O)CC3)CC2)c1 [Example 80]
1350 nM | O=C(O)CCC1CCC2(CC1)CCN(c1cc(OC3CCC3)ccc1Cl)CC2 [Example 84]
1790 nM | O=C(O)CCC1CCC2(CC1)CCN(c1cc(OC(F)(F)F)ccc1Cl)CC2 [Example 85]
2260 nM | O=C(O)CCCC1CCC2(CC1)CCN(c1cc(OC3CCC3)ccc1Cl)CC2 [Example 87]
2490 nM | CC1CC(CC(=O)O)CCC12CCN(c1cc(OC(F)(F)F)ccc1Cl)CC2 (stereo not shown) [Example 89, 2-(3-(2-Chloro-5-(trifluoromethoxy)phenyl)-7-methyl-3-azaspiro[5.5]undecan-9-yl)acetic acid]
1530 nM | O=C(O)C[C@@H]1CCC2(CCN(c3cc(OC4CCC4)ccc3Cl)CC2)OC1 [Example 98]

Molecular target: T1, human GPR120
Assay: IP1 assay (GPR120 assay adapted from Bergsdorf et al.)
Assay type: cell-based
Details: not given
Text: The EC50 values for the exemplified compounds are provided in the following examples and in the following tables. • IP1 Assay • IP1 assay results were obtained adapting the GPR120 assay described in C. Bergsdorf, et al., Assay Drug Dev. Technol., 2008, 6(1), 39-53. General Schemes

EC50 | Compound
220 nM | N#Cc1ccc(OC(F)(F)F)cc1N1CCC2(CCC(CCC(=O)O)C2)CC1 (stereo not shown) [Example 106]
202 nM | COc1cc(F)c(N2CCC3(CCC(CCC(=O)O)C3)CC2)cc1OC1CCC1 (stereo not shown) [Example 107]

Compound | EC50
O=C(O)CCC1CCC2(CCN(c3cc(OC4CCC4)ccc3Cl)CC2)C1 (stereo not shown) [Example 105, 3-(8-(2-chloro-5-cyclobutoxyphenyl)-8-azaspiro[4.5]decan-2-yl)propanoic acid] | 44.8 nM
